pEC50, pKd: −log10 of the molar value. Where two headings read alike, the source gives them in different places.
What was measured:
Shp1 [1] = biological target: T1, Shp1 (Homo sapiens, UniProt P29350); test: Steady-state Trp fluorescence emission spectroscopy of purified Shp1; assay type: binding
T1 construct: the C-terminal truncated form of human Shp1 cDNA (His-Shp1; amino acids 1–529); made in house; host or cells: E. coli BL21(DE3)
T1 sequence (P29350 1-529 isoform P29350-3): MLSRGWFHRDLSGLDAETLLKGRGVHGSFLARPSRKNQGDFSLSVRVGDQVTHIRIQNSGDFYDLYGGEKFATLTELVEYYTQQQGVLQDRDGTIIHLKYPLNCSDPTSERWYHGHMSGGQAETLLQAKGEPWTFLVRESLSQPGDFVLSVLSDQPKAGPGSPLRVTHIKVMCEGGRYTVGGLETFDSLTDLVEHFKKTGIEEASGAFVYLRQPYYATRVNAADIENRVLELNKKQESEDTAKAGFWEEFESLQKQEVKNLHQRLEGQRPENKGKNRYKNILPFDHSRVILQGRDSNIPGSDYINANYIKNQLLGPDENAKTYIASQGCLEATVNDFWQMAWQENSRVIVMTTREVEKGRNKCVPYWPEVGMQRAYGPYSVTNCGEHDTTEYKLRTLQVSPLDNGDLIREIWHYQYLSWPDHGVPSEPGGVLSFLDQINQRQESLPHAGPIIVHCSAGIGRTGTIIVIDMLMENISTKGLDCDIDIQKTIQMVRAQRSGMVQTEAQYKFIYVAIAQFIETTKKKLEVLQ
Description: The absorption spectra of Shp1 were recorded using a Varian Cary 1 spectrophotometer. Steady-state fluorescence emission measurements were performed with a K2 fluorometer (ISS, Champaign, IL, USA) equipped with a two-cell temperature-controlled sample holder. To selectively excite Trp residues, the excitation wavelength was set at 295 nm with a slit width of 1 nm. To avoid the inner-filter effect, all steady-state fluorescence measurements were performed on Shp1 with optical densities at 295 nm less than 0.1 OD. All measurements were made at 25 °C with the temperature of the samples determined in the cuvette with an accuracy of ±0.2 °C. For each experiment, the Shp1 concentration was fixed at 1.2 μM, while GroPIns4P was varied from 0.0 to 5.0 μM. Thus, a 500 μL solution containing 1.2 μM Shp1 dissolved in PBS pH 7.4 was titrated by successive additions of GroPIns4P (dissolved in PBS buffer, pH 7.4). After each addition, the samples were incubated for 2 min and fluorescence emission spectra were recorded between 310 and 410 nm in triplicate. To exclude the influence of sample dilution, fluorescence titration experiments were performed by adding the same amount of PBS buffer in the total volume (500 μL).

Shp1 [2] = biological target: T1, Shp1; test: Isothermal titration calorimetry, Shp1 WT; assay type: binding
Description: ITC measurements were performed by using a Nano-ITC III (TA instruments, New Castle, DE, USA) with a reaction cell volume of 1 ml kept at 25 °C. A protein solution of 10 μM was titrated into the calorimetric cell with a solution of 50–100 μM of the ligand GroPIns4P (Ins4P) in the syringe. A sequence of 16 injections of 15 μL volume was programmed with a stirring speed of 250 rpm at 500 s intervals. Protein samples were prepared with protein solutions at 25 °C in 20 mM Tris buffer pH 7.4 with 50 mM NaCl and 1 mM TCEP. To minimise the differences in buffer composition and pH between cell and syringe, both ligand and protein solutions were prepared with the same batch of buffer. The heat of dilution of the GroPIns4P into the buffer solution was measured in a separate experiment and appropriate corrections were made. The heat evolved after each ligand injection was obtained from the integral of the calorimetric signal. Raw data were integrated, corrected for non-specific heats and normalized for concentration. The equilibrium dissociation constant (KD), binding enthalpy (ΔbH) and binding stoichiometry (n) were obtained by nonlinear regression of the experimental data using a model of independent binding sites, by means of the NanoAnalyze software. Experiments were performed in duplicate.

Shp1 [3] = biological target: T1, Shp1; test: In-vitro dephosphorylation of Src by recombinant Shp1; assay type: biochemical; conditions: 50 μM, 10 min at 37 °C
Description: The immunoprecipitates were washed three times with lysis buffer, three times with lysis buffer without phosphatase inhibitors, and twice with phosphatase buffer (100 mM Na-Hepes, pH 7.4, 150 mM NaCl, 1 mM EDTA, and 10 mM DTT). The immunoprecipitates were then split equally into different tubes for treatment with Shp1 or buffer only. The treatment consisted of the addition of 2 μg of Shp1 to the immunoprecipitates in the absence or presence of 50 μM GroPIns4P and an incubation at 37 °C for different times. The reactions were terminated by the addition of concentrated SDS-sample buffer.

NIH3T3 cells = test: Immunofluorescence analysis for membrane ruffling; assay type: cell-based
Description: NIH3T3 and Raw 264.7 cells were cultured in DMEM supplemented with 2 mM L-glutamine, 50 U/mL penicillin, […] streptomycin, and 10% CS or heat-inactivated FBS (30 min at 55 °C), respectively. NIH3T3 cells were transfected with different plasmids using the Lipofectamine LTX/plus reagent according to the manufacturer’s instructions. For immunofluorescence experiments, NIH3T3 cells were seeded onto glass coverslips in 24-well plates at a concentration suitable for 70% confluence without transfection or 50% confluence in the case of Lipofectamine-based cell transfection. In the latter, approximately 24 h after seeding, NIH3T3 cells were transiently transfected with different plasmids with the Lipofectamine LTX/plus reagent following the manufacturer’s instructions. Before treatments, NIH3T3 cells were serum-starved in DMEM with 2 mM glutamine, 50 U/mL penicillin and streptomycin for 16–20 h. The cells were then treated with different stimuli and/or inhibitors, as indicated in the text and/or Figure legends. Addition of exogenous GroPIns4P was at 50 μM (unless otherwise indicated), a concentration eliciting an intracellular concentration of about 1.5 μM, as calculated from the Nernst equation (with T = 300 K, z = − 3, and Veq = − 30 mV, an average value for cultured, non-excitable cells).
For ruffle assessment after treatments, immunofluorescence labelling and morphological analysis of the cells were performed as previously described in a double-blind fashion. In brief, the assessment was based on a null score (zero) for the absence of the feature, followed by a score of one or two according to the level of response of each individual cell, where one indicate that ruffling was confined to one area of the cell (< 25% of the cell circumference), and two indicate that two or more discrete areas of the cell contained ruffles. The cell phenotypes were quantified by counting 150 cells in each sample. The data were then expressed as percentage scores (±SD) for each treatment response compared with its respective control. Scoring of the control cells was performed in the same way to evaluate the presence of the features of interest in untreated cells.

- pEC50 (Shp1 [1]; Shp1 1.2 μM, GroPIns4P 0.0 to 5.0 μM, emission at 332 nm, read-out: apparent EC50 of Trp fluorescence quenching): ~6.22
- maximal quenching of the initial emission (Shp1 [1]; at 5 μM GroPIns4P): 18%
- pKd (Shp1 [2]; ITC, 25 °C, Shp1 WT, read-out: KD): 6.52
- pKd (Shp1 [2]; summary over ITC, Trp fluorescence and SPR competition, read-out: affinity of the binding): 6.10 to 6.52
Structure (SMILES): O=P(O)(O)OC1C(O)C(O)C(OP(=O)(O)OCC(O)CO)C(O)C1O (stereo not drawn) [GroPIns4P, glycerophosphoinositol 4-phosphate]
- effect on Shp1 phosphatase activity against immunopurified Src (pTyr530) (Shp1 [3]): stimulated Shp1 activity and induced Src dephosphorylation
- increase in peripheral ruffles versus the control (NIH3T3 cells; 50 μM GroPIns4P for 5 min): 2.5–3 fold
- effect on ruffle formation (NIH3T3 cells; cells expressing Shp1 S118A/R138E/S140A, 50 μM GroPIns4P): significantly inhibited
- membrane ruffle formation (NIH3T3 cells; cells over-expressing Shp1-C455S, 50 μM GroPIns4P): did not lead to membrane ruffle formation
- actin ruffle formation (NIH3T3 cells; cells over-expressing Shp1 S12A/R32E/S34A, 50 μM GroPIns4P): resulted in the induction of actin ruffles

Reference: paper PMC6396489 (Cell Communication and Signaling : CCS, 2019)
